# Columns and labels:
# [1] = tested on: Carageenan-induced paw swelling; assay: Carageenan-induced paw swelling; type: in vivo, mice; conditions: 1 μg/mouse; 2 hr time point
# Protocol: Carageenan-induced paw swelling was induced using a modification of the methods of Hiltz and Lipton, Peptides 11:979-982 (1990); Vinegar et al., Fed. Proc. 46:118-126 (1987); and Vinegar et al., J. Pharmacol. Expt. Therap. 166:96-103 (1969), each of which is incorporated herein by reference. Briefly, adult female Balb/c mice were anesthetized by IP injection of 7 mg/kg ketoamine and 0.6 mg/kg rompun. Foot pad thickness was measured using a spring loaded micrometer (Swiss Precision Instruments). Foot pad thickness was expressed in units of 1/100 inch. After baseline measurements were obtained, mice were injected into a hind foot pad with either 0.2 ml physiologic saline (control) or varying doses of EX-2 or EX-3 in 0.2 ml saline (treated). The first injection was followed immediately by injection of 0.02 ml of 0.15% K-carageenan (Sigma Chemical Co.; St. Louis, Mo.).
# Hind foot pad thickness was measured hourly for six hr, the change in thickness was determined and the percent reduction in swelling due to treatment with EX-2 was calculated.
# [2] = tested on: TNF-α; assay: Reduction of LPS-induced TNF levels in mice (IP dosing); type: in vivo; conditions: 30 μg/mouse IP, one min before LPS 5 mg/kg IP; vs untreated control mice
# Protocol: Balb/c female mice weighing approximately 20 g were placed into two groups, a control group and a treated group. Five mg/kg of LPS in 0.9% saline was administered by intraperitoneal (IP) injection into the control mice. Mice in the treated group were first injected IP with 30 μg EX-2 or 150 μg EX-3 in saline, then, one min after EX-2 or EX-3 was administered, the mice received LPS as described for the control group.
# Blood samples were collected from the orbital sinus of treated and control mice at various times up to four hr after LPS was administered. The plasma was separated by centrifugation at 3000×g for 5 min, then diluted with four volumes of 1× phosphate buffer saline (pH 7.4) containing 1% bovine serum albumin. A 100 μl sample of serum was assayed by ELISA for TNF-α (Genzyme; Cambridge Mass.).
# The mean (+/- SEM) TNF-α level in six mice from each group was determined and the percent reduction in TNF levels was calculated.
# [3] = tested on: glomerulonephritis; assay: Glomerulonephritis (nephrotoxic serum), albuminuria; type: in vivo, rats; conditions: 100 μg/kg per injection, 3 times per day
# Protocol: Male Sprague-Dawley rats (weight 194-248 g) were immunized by subcutaneous injection of 1 mg normal rabbit IgG (Sigma Chemical Co.) in Freund's complete adjuvant (Sigma Chemical Co.). EX-2 was administered 3 times per day (100 μg/kg per injection) throughout the duration of the experiment. Seven days later, the rats were injected with 1.5 ml of nephrotoxic serum iv via dorsal penile vein. Urine, plasma, and serum were collected before injection of nephrotoxic serum at 4, 6, 24, 48, and 96 hr thereafter. […] Albuminuria was quantified by immunoelectrophoresis.
# [4] = tested on: kidney (cyclosporine-induced nephrotoxicity); assay: Cyclosporine-induced nephrotoxicity; type: in vivo, rats
# Protocol: In the first study, male Sprague-Dawley rats (n=43) with a weight range of 240-290 g at the initiation of the cyclosporine A (CsA) treatment were divided into 4 weight matched groups. The groups were as follows: (1) Control: no CsA, no EX-2, treatment only with CsA vehicle (PBS) PO and EX-2 vehicle (also PBS) IP; (2) CsA: treatment with CsA (50 mg/kg in PBS administered PO daily at 0830 hr for 9 days) and IP injections of PBS (Ex-2 vehicle); (3) CsA and 50 μg: CsA treatment identical to group 2 with the addition of EX-2 (50 μg/kg IP administered daily at 0800 and 1700 hr in EX-2 vehicle); and (4) CsA and 500 μg: CsA treatment identical to groups 2 and 3, and EX-2 treatment protocol similar to group 3 except that the dose of EX-2 was 500 μg/kg BW. […] Renal blood flow was determined by the inulin extraction technique. […]
# In the second study, male Sprague-Dawley rats (n=3l) with a weight range of 240-290 g at the time of initiation of the cyclosporine treatment were divided into 4 weight-matched groups. […] Renal hemodynamics were determined and extracellular fluid volumes were also assessed.
# In the second study, where extracellular fluid volumes (ECF) were measured, there were no differences in ECF among control and treatment groups (27.6±1.9 in control, 27.5±1.7 in CsA and vehicle, 26.2±0.9 in CsA +200 μg/kg EX-2, and 25.7±1.4% in CsA +500 μg/kg EX-2). […]
# [5] = tested on: kidney (renal ischemia/reperfusion); assay: Renal ischemia-reperfusion injury; type: in vivo, rats; set-up: RVR: unit not given here; conditions: I/R + EX-2 (50 or 500 μg/kg iv, dose not given); 1 hr clamping, after 60 min reperfusion
# Protocol: Sprague-Dawley rats (250-300 g) were anesthetized with inactin® (120 mg/kg). After deep anesthesia was assured, the rats were cannulated in the trachea with polyethylene (PE) tubing (PE 240), jugular vein, femoral artery, bladder (PE 50 for previous 3 cannulations), and left ureter (stretched PE 50). Once cannulation was completed, a 2 cm flank incision above the left kidney was performed and the renal pelvis and vascular bundle were exposed. The tissue surrounding the left renal artery was gently dissected away from the artery. The exposed renal artery was clamped for 1 hr using a small vascular cross-over clamp. Just prior to clamping, EX-2 (50 or 500 μg/kg), ketorolac (KETO, 1 mg/kg), or vehicle was administered intravenously (iv) After 1 hr of clamping (ischemia), the clamp was gently removed with care taken to avoid damaging either the renal artery or nerves.
substance,measurement,setting,value
Ac-Nle-Gln-His-(D)Phe-Arg-(D)Trp-Gly-NH2 [EX-2],Reduction in Carageenan-induced Paw Swelling,[1],45%
same,Reduction in TNF levels,[2],50%
same,"% Reduction, Glomerulonephritis, Urine Albumin (mg/day)",[3],62%
same,renal blood flow,"[4]; CsA-treated rats, EX-2 IP twice daily",improved blood flow to values not different from control
same,GFR,"[4]; compared to CsA and vehicle controls, in both studies",significantly increased GFR
same,GFR,[5],0.5 ± 0.1
same,RPF,[5],2.3 ± 0.3
same,RVR,[5],1.8 ± 0.2

# Reference: patent publication US5726156A, “Cytokine regulatory agents and methods of use in pathologies and conditions associated with altered cytokine levels” (Trega Biosciences, Inc., priority 1995, dated 1998)
